{
  "source": "patent US20260200943A1",
  "about": "“COMPOUNDS FOR TREATING CANCER” (Genesis Therapeutics, Inc., priority 2022, published 2026)",
  "details": "other bond, 2 steps",
  "note": "Like-named read-outs stand apart in the source and are kept apart here.",
  "data": [
    {"compound": "CC(C)(C)OC(=O)NCCCCCNc1cc(Nc2ncc(C3CCC(OC(=O)Oc4ccc([N+](=O)[O-])cc4)C3)cn2)ccc1S(=O)(=O)NC(=O)OC(C)(C)C", "note": "(stereo not drawn)", "values": [
      {"measurement": "ring closure, isolated yield", "setting": "the molecule shown is the open-chain precursor, 20-membered ring, HCOOH, then DIEA, DMF, 76.7 mM, 50.0 °C", "result": 39.5, "unit": "%"}
    ]},
    {"compound": "CC(C)(C)OC(=O)NCCOCCNS(=O)(=O)c1ccc(Nc2cc([C@H]3CC[C@@H](OC(=O)Oc4ccc([N+](=O)[O-])cc4)C3)n(C(C)(C)C)n2)c(F)c1", "values": [
      {"measurement": "ring closure, isolated yield", "setting": "the molecule shown is the open-chain precursor, 21-membered ring, TFA, then DIPEA, DCE, 5.25 mM, 25.0 °C", "result": 62.3, "unit": "%"}
    ]},
    {"compound": "(1^1S,1^3R,Z)-2^1H-15-oxa-5-thia-3,6,13-triaza-2(5,3)-pyrazola-4(1,4)-cyclohexana-1(1,3)-cyclopentanacyclopentadecaphan-14-one 5,5-dioxide", "values": [
      {"measurement": "ring closure, isolated yield", "setting": "22-membered ring, TFA, then DIPEA, DCM/DCE, 4.26 mM, 25.0 °C", "result": 50, "unit": "%"}
    ]}
  ]
}
